From patent US9833454B2, “Difluoromethoxy compound with low bioactivation potential for the reduction of beta-amyloid production” (BRISTOL-MYERS SQUIBB COMPANY, priority 2014, dated 2017)
pIC50: −log10 of the molar value. Like-named read-outs stand apart in the source and are kept apart here.

Assays:
dopamine receptor 1 = dopamine receptor 1 (Homo sapiens, UniProt P21728); test: In vitro safety: off-target receptor binding and enzyme assays, D1; conditions: in vitro safety panel
Protocol: (§1) A range of off-target receptor binding assays and enzyme assays were carried out using conventional methods available in the art.

CYP2C19 = CYP2C19 (Homo sapiens, UniProt P33261); test: Inhibition of recombinant CYP enzymes (rCYP), CYP2C19; format: in vitro ADME; conditions: average of two experiments, read-out: rCYP IC50 2C19
CYP3A4 = CYP3A4 (Homo sapiens, UniProt P08684); test: HLM CYP3A4 Inactivation Assay; format: in vitro ADME
Aβ42 = test: Determination of Aβ42 IC50; format: cell-based
Protocol: Aβ42 IC50 was determined as described by Gillman, J. E. Starrett Jr., M. F. Parker, et al., “Discovery and evaluation of BMS-708163, a potent, and orally bioavailable gamma-secretase inhibitor”, ACS Medicinal Chemistry Letters, vol. 1., pp. 120-124, 2010. Mouse brain Aβ42 was determined as described by J. H. Toyn, X-A. Lin, M. W. Thompson et al., “Viable mouse gene ablations that robustly alter bran Abeta levels are are”, Biomed. Central Neuroscience, vol. 11, pp. 143, […].

CYP2C9 [1] = target: T1, CYP2C9 (Homo sapiens, UniProt P11712); test: Inhibition of recombinant CYP enzymes (rCYP), CYP2C9; format: in vitro ADME; conditions: average of two experiments, read-out: rCYP IC50 2C9
CYP1A2 = target: T2, CYP1A2 (Homo sapiens, UniProt P05177); test: Inhibition of recombinant CYP enzymes (rCYP), CYP1A2
T2 sequence (P05177 1-516): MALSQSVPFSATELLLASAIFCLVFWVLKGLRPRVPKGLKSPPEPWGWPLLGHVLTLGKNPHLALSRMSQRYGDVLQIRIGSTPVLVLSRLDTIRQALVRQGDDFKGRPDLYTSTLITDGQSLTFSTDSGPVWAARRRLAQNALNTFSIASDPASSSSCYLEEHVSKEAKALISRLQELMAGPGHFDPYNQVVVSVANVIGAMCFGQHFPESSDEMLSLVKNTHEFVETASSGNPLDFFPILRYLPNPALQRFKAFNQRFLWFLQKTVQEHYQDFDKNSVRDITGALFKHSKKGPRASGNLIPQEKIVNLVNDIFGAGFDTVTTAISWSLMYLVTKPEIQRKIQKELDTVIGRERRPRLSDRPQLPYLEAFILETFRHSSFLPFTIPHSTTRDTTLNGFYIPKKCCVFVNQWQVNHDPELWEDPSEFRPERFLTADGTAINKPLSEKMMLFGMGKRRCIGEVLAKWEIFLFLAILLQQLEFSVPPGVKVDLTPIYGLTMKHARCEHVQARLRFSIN

CYP2B6 = target: T3, CYP2B6 (Homo sapiens, UniProt P20813); test: Inhibition of CYP enzymes in human liver microsomes (HLM), CYP2B6; format: in vitro ADME
T3 sequence (P20813 1-491): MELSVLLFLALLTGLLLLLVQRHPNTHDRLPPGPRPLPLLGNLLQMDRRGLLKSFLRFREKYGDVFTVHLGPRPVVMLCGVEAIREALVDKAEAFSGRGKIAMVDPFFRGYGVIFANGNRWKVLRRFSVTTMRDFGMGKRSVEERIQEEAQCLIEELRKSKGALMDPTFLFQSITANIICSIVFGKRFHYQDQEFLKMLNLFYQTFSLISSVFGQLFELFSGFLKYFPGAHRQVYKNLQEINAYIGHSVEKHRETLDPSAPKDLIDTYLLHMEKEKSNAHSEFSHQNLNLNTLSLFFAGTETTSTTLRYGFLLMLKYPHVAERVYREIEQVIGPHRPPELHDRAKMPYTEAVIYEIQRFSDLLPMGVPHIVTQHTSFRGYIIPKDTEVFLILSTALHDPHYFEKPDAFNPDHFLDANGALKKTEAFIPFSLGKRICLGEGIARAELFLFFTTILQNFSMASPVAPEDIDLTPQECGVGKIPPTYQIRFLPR

monoamine oxidase A = target: T4, monoamine oxidase A (Homo sapiens, UniProt P21397); test: In vitro safety: off-target receptor binding and enzyme assays, MAO A; format: biochemical; conditions: in vitro safety panel
T4 sequence (P21397 1-527): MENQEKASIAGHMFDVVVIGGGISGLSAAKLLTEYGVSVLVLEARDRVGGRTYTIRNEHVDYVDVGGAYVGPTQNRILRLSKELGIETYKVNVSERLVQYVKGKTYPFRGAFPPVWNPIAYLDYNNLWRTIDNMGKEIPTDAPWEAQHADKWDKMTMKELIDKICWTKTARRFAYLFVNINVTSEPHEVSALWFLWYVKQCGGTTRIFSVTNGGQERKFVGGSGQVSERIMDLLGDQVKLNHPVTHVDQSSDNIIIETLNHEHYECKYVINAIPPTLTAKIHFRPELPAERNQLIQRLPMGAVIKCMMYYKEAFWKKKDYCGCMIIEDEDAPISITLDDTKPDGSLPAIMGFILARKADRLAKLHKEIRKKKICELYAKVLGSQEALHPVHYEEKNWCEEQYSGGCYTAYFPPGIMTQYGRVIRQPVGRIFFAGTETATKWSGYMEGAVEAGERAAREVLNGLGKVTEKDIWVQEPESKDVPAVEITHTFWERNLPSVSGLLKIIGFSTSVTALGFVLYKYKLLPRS
Protocol: as §1

CYP2D6 = CYP2D6 (Homo sapiens, UniProt P10635); test: Inhibition of CYP enzymes in human liver microsomes (HLM), CYP2D6; conditions: IC50 shift 0 vs 30 min preincubation (TDI ratio)
CYP2C9 [2] = target: T1, CYP2C9; test: Inhibition of CYP enzymes in human liver microsomes (HLM), CYP2C9; format: in vitro ADME
[3] = HLM, all tested concentrations 0.31-20 μM, up to 25 min

Sequence of CYP3A4 (P08684 whole entry): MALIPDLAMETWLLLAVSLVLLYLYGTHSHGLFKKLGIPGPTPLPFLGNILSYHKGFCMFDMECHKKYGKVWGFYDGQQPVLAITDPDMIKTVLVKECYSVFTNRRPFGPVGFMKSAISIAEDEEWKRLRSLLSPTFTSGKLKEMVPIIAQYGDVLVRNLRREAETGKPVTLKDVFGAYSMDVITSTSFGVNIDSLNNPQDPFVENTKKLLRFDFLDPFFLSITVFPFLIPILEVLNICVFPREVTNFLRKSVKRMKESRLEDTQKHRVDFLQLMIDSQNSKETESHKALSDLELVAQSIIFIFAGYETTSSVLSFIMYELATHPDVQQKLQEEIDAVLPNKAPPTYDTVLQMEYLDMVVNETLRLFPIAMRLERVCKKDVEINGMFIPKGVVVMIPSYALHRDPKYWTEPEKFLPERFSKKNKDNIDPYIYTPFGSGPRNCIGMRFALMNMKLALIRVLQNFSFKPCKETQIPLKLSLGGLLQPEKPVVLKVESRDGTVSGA
T1 sequence (P11712 whole entry): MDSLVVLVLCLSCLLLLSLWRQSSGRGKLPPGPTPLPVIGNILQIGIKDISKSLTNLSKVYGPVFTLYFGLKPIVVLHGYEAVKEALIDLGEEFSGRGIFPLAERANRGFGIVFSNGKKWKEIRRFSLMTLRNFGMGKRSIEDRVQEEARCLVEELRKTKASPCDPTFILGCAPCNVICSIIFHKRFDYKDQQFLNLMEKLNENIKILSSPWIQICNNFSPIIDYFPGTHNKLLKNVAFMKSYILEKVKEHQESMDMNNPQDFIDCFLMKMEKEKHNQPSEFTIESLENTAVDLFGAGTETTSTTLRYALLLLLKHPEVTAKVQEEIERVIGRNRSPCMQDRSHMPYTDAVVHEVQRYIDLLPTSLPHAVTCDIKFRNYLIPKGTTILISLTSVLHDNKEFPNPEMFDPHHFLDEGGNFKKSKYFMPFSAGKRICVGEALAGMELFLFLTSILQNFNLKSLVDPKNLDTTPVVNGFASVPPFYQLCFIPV
Sequence of dopamine receptor 1 (P21728 whole entry): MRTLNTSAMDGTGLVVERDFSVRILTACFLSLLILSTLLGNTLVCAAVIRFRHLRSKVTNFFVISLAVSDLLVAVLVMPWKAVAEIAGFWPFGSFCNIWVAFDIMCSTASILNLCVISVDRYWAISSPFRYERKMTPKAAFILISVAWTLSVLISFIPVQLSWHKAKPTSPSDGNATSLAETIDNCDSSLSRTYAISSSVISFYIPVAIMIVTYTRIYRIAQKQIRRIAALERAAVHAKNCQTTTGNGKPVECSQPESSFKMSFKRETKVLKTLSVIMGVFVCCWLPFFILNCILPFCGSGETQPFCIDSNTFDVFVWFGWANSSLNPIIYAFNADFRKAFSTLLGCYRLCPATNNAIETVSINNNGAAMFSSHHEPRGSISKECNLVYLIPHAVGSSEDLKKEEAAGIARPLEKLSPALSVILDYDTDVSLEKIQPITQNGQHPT
Sequence of CYP2C19 (P33261 whole entry): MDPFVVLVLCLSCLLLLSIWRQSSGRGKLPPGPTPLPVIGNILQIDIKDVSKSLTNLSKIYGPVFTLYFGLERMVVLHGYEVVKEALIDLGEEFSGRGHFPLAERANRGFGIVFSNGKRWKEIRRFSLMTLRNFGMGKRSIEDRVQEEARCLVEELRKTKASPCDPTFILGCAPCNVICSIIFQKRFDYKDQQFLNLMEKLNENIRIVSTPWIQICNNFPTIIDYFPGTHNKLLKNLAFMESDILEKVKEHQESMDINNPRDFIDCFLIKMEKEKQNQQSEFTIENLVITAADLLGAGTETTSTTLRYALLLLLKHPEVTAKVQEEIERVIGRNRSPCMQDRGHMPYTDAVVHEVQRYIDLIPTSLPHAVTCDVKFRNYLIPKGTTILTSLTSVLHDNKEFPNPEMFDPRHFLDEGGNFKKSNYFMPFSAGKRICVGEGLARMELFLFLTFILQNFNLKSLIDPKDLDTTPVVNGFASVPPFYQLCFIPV
Sequence of CYP2D6 (P10635 whole entry): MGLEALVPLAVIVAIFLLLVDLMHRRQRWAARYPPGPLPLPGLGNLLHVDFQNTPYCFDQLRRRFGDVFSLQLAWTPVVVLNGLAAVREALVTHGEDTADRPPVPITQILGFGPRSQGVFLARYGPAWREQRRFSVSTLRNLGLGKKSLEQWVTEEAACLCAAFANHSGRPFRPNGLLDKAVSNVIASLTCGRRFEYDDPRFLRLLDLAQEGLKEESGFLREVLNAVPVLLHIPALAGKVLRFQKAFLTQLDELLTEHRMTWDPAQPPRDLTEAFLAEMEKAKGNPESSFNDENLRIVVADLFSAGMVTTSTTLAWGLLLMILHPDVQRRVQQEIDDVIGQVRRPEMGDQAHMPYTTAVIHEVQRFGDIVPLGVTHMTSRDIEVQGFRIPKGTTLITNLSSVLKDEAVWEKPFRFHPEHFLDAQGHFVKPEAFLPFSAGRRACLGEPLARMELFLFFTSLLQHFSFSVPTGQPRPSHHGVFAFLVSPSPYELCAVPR

pIC50 (CYP2C19): 6.02
apparent rates of inactivation (kobs) with midazolam (CYP3A4; [3]): < 0.003 min⁻¹
apparent rates of inactivation (kobs) with testosterone (CYP3A4; [3]): < 0.006 min⁻¹
pIC50 (Aβ42): 8.92
pIC50 (CYP2C9 [1]): 5.89
pIC50 (CYP1A2): < 4.70
pIC50 (CYP2B6; 0 min preincubation, read-out: IC50-0 min 2B6): < 4.40
IC50 Ratio 2B6 (CYP2B6; IC50 shift 0 vs 30 min preincubation (TDI ratio)): 1.0
pIC50 (CYP2B6; read-out: IC50-30 min 2B6, 30 min preincubation with NADPH): < 4.40
IC50 Ratio 2D6 (CYP2D6): 2.2
pIC50 (CYP2C9 [2]; HLM, 0 min preincubation, read-out: IC50-0 min 2C9): 4.90
IC50 Ratio 2C9 (CYP2C9 [2]; HLM, IC50 shift 0 vs 30 min preincubation (TDI ratio)): 1.4
pIC50 (CYP2C9 [2]; IC50-30 min 2C9, HLM, 30 min preincubation with NADPH): 5.06
Structure (SMILES): CNc1nc(Nc2ccc(-n3cnc(C)n3)c(OC(F)F)c2)nc2c1C(C)(C)CC2c1ccc(F)cc1 (single isomer, unassigned) [Enantiomer 1, N2-(3-(difluoromethoxy)-4-(3-methyl-1H-1,2,4-triazol-1-yl)phenyl)-7-(4-fluorophenyl)-N4,5,5-trimethyl-6,7-dihydro-5H-cyclopenta[d]pyrimidine-2,4-diamine]
pIC50 (dopamine receptor 1): 5.00 to 5.10
KI; Kinact (CYP3A4; HLM CYP3A4 inactivation): Inactivation rates below the limit of reliable
mechanism-based inhibition of CYP3A4 (CYP3A4; HLM, midazolam and testosterone probes): not a mechanism-based inhibitor of CYP3A4
pIC50 (monoamine oxidase A): 5.00 to 5.10
